Results from US20060240028A1, “Anti-nls substances and uses thereof in nuclear import inhibition” (priority 2002, published 2006).
No end group written: not given here.

Columns and labels:
[1] = test system: interaction between anti-VprN scFv antibodies and surface-bound BSA-VprN conjugate; assay: Competition ELISA: inhibition of anti-VprN scFv binding to surface-bound BSA-VprN by soluble ligands; design: species or system HIV-1; settings: for inhibition of binding of the three antibodies to VprN-BSA by soluble ligand: Ab1, Ab2, Ab3
Protocol: (§1) The various ELISA assays used in the present work were carried out as follows: MaxiSorb plates (NUNC) were covered overnight with 25-100 μg/ml of the antigen (in Carbonate Buffer 0.05M Na2CO3/0.05M NaHCOs, pH9.6) at 4° C. On the next day, the plates were washed three times with 1×PBS and blocked with 2% BSA in 1×PBS (for antibodies) or 2% Skim Milk (DIFCO) in 1×PBS (for all other molecules) for 2 hours at 37° C. The plates were then washed three times with 1×PBS, and the appropriate ligand (in blocking solution) was added and incubated for 2 hours at 37° C. The plates were then washed three times with 1×PBS and the following detecting agents were added for detecting the antigen-ligand complexes: Avidin-POD (Roche Diagnostics), for biotin labeled molecules (1 unit/ml); anti-M13 monoclonal antibody (Amersham Pharmacia, 1:5000), for the bound phages; and a mix of mouse anti-myc antibody (Sigma, 1:1000) with anti-mouse-HRP antibody (Sigma, 1:2000) for the scFv antibodies. Each detecting agent was dissolved in the appropriate blocking solution (see above). Following incubation for 1 hour at 37° C. with the detecting agent, the plates were washed three times with 1×PBS and the appropriate substrate was added, according to manufacturer instructions.

[2] = test system: binding of anti-VprN scFv antibodies to Vpr-GST; assay: Competition ELISA: inhibition of anti-VprN scFv binding to surface-bound Vpr-GST; design: species or system HIV-1; settings: for inhibition of binding of all three antibodies to Vpr-GST by added ligand: Ab1, Ab2, Ab3
Protocol: as §1

[3] = test system: VprN-mediated nuclear import; assay: Nuclear import of FL-BSA-VprN in permeabilized HeLa cells, fluorescence microscopy; assay type: cell-based; settings: 1 mg/ml WGA, 4 mM GTP-γ-S, Table 2 (not given)
Protocol: (§2) Nuclear import of rhodamine-labeled BSA-NLS conjugates (FL-BSA-NLS) was performed as described before [Adam (1992) id ibid.; Broder (1997) id ibid.]. Amounts of FL-BSA-NLS substrate for FL-BSA SV40 large T-Ag NLS was 3-5 μg/system and for the FL-BSA-VprN 25 μg/system. Controls included: 1 mg/ml Wheat Germ Agglutinin (WGA), 4 mM of GTP-γ-S, or 1000 units/ml of Hexokinase and 10 mM Glucose. Samples were observed and photographed using confocal fluorescent microscopy.

[4] = test system: nuclear import of Vpr-GST fusion protein; assay: Nuclear import of FL-Vpr-GST in digitonin permeabilized HeLa cells; assay type: cell-based; settings: 5-fold excess unlabeled Vpr-GST
Protocol: as §2
The Vpr-GST fusion protein eluted from the Glutathione-Agarose resin was concentrated by VivaScience concentrators (MWCO 30,000) to a final concentration of 2.5-3.0 mg/ml, dialyzed for 2-3 hours against 1×PBS at 4° C. and labeled with rhodamine-maleimide Molecular Probes) according to manufacturer's instructions. Following 2 hours of incubation at room temperature with rotation, the labeled Vpr-GST fusion protein (FL-Vpr-GST) was purified using Sephadex G-25 fine (Pharmacia). The FL-Vpr-GST was then concentrated again using VivaScience concentrators (MWCO 30,000) and stored at −20° C.

[5] = test system: Tat-ARM mediated nuclear import; assay: Nuclear import of FL-BSA-Tat conjugates in HeLa cells; assay type: cell-based; settings: WGA 1 mg/ml, peptide/FL-BSA-Tat 20/1
[6] = test system: VprN-BSA conjugate (N-terminal domain of Vpr, amino acids 17-34); assay: ELISA binding to surface-bound BSA-VprN conjugate; design: species or system HIV-1; settings: FIG. 2
Protocol: Panning of the human scFv antibody phage display library [Harrison, J. L. et al. (1996) Methods in Enzymology 267, 83-109; Nissim, A. et al. (1994) EMBO J 13, 692-698] was conducted as follows. Two immunotubes (5 ml, NUNC) were incubated in parallel, with rotation at room temperature overnight, one containing the BSA-VprN conjugate and the other one containing only BSA, both in 0.1 mg/ml carbonate buffer (0.05M Na2CO3/0.05M NaHCO3, pH9.6). Following incubation, the tube with the surface attached BSA-VprN conjugates was washed three times with 1× PBS and then incubated for two hours at 37° C. with 2% (w/v) skim milk (DIFCO) in 1×PBS (2% MPBS). After three washes with 1× PBS, the scFv phage library (4 ml in 1% MPBS) was added and the tube containing the phage particles was incubated for 30 min with, and for 1.5 hours without rotation, at room temperature. The supernatant was then removed and the tube was washed ten times first with 1×PBS containing 0.05% Tween 20 and then with 1×PBS only. For elution of bound phages, 1 ml of 0.1M triethylamine was added, incubated for 10 min at room temperature with rotation, and the triethylamine solution containing the eluted phages collected and mixed with 0.5 ml of 1M Tris-HCl, pH7.4. […]

[7] = molecular target: anti-VprN scFv antibody Ab1; assay: competition ELISA: free VprN peptide against Ab1 binding to coated BSA-VprN
BSA-SV40 NLS conjugate = molecular target: T1, BSA-SV40 NLS conjugate (SV40, rhodamine- or biotin-labelled in the nuclear import assays; cysteine added at the C-terminus; peptide chemically conjugated to BSA); assay: peptide ELISA on coated BSA-NLS conjugates (FIG. 2A)
T1 construct: also called BSA-SV40 large T-antigen NLS; SV40 NLS-BSA conjugate
Protocol: (§3) The various ELISA assays used in the present work were carried out as follows: MaxiSorb plates (NUNC) were covered overnight with 25-100 μg/ml of the antigen (in Carbonate Buffer 0.05M Na₂CO₃/0.05M NaHCOs, pH9.6) at 4° C. On the next day, the plates were washed three times with 1×PBS and blocked with 2% BSA in 1×PBS (for antibodies) or 2% Skim Milk (DIFCO) in 1×PBS (for all other molecules) for 2 hours at 37° C. The plates were then washed three times with 1×PBS, and the appropriate ligand (in blocking solution) was added and incubated for 2 hours at 37° C. The plates were then washed three times with 1×PBS and the following detecting agents were added for detecting the antigen-ligand complexes: Avidin-POD (Roche Diagnostics), for biotin labeled molecules (1 unit/ml); anti-M13 monoclonal antibody (Amersham Pharmacia, 1:5000), for the bound phages; and a mix of mouse anti-myc antibody (Sigma, 1:1000) with anti-mouse-HRP antibody (Sigma, 1:2000) for the scFv antibodies. Each detecting agent was dissolved in the appropriate blocking solution (see above). Following incubation for 1 hour at 37° C. with the detecting agent, the plates were washed three times with 1×PBS and the appropriate substrate was added, according to manufacturer instructions.

BSA-VprN conjugate = molecular target: T2, BSA-VprN conjugate (HIV-1, rhodamine- or biotin-labelled in the nuclear import assays; cysteine added at the N-terminus; peptide chemically conjugated to BSA); assay: peptide ELISA on coated BSA-NLS conjugates (FIGS. 2A and 2B)
T2 construct: The peptide is printed with superscripts 16 and 34, the text calls it residues 17-34; also called VprN-BSA conjugate; VprN-BSA
Protocol: as §3

Molecule: VprN-BSA: BSA molecule bearing about 3-4 covalently attached VprN peptides
- inhibition of binding of the three antibodies to VprN-BSA by soluble ligand [1]: inhibited
- concentration of soluble ligand inhibiting Ab1 binding to its antigen by 90% ([1]; Ab1, surface-bound VprN-BSA): about 5 μM
- fold lower concentration than VprN peptide required to block antibody binding to Vpr-GST [2]: about ten
- inhibition of binding of all three antibodies to Vpr-GST by added ligand [2]: strongly inhibited

Molecule: wheat germ agglutinin [WGA]
- inhibition of nuclear import of BSA-VprN conjugate by control agents [3]: inhibited
- inhibition of nuclear import of Vpr-GST by control agents [4]: inhibited
- inhibition of nuclear import of FL-BSA Tat ARM conjugates by control agents [5]: inhibited

Molecule: Nc1nc2c(ncn2[C@@H]2O[C@H](COP(=O)(O)OP(=O)(O)OP(O)(O)=S)[C@@H](O)[C@H]2O)c(=O)[nH]1 [GTP-γ-S]
- inhibition of nuclear import of BSA-VprN conjugate by control agents [3]: partially inhibited
- inhibition of nuclear import of Vpr-GST by control agents [4]: partially inhibited

Molecule: VprN mutant (CNEATLELLPELKNPAVRHF)
- inhibition of binding of the three antibodies to VprN-BSA by soluble ligand [1]: No or low inhibition
- inhibition of binding of all three antibodies to Vpr-GST by added ligand [2]: no or little inhibition

Molecule: peptide a: synthetic peptide of the CDR3 random insert of phage A, ISSD (SEQ. ID. NO. 4) (AFMKSGKRFIH; CDR3 random insert sequence of Ab2)
- binding of anti-VprN peptide to VprN-BSA conjugate [6]: failed to recognize

Molecule: SV40 NLS peptide: PKKKRKVC (SEQ. ID. NO.7), the SV40 large T-antigen NLS (SV40-NLS with extra C)
- inhibition of binding of the three antibodies to VprN-BSA by soluble ligand [1]: No or low inhibition

Molecule: CNEWTLELLEELKNEAVRHF (cysteine added at the N-terminus) [VprN peptide (free synthetic peptide)]
- concentration giving 90% inhibition [7]: > 15 µM

Molecule: HFHYKGKLQTF (not fully specified) [synthetic anti-VprN peptide c (CDR3 random insert of phage C)]
- binding result (BSA-SV40 NLS conjugate): no binding
- binding result (BSA-VprN conjugate): no binding

Molecule: ISSD (not fully specified) [synthetic anti-VprN peptide a (CDR3 random insert of phage A)]
- binding result (BSA-SV40 NLS conjugate): no binding
- binding result (BSA-VprN conjugate): no binding
